According to patent publication US9290464B2 (priority 2010, dated 2016):

What was measured:
[1] = tested on: MAO-B-deficient human neuroblastoma SH-SY5Y cells; assay: Reactive oxygen species (DCF-DA staining) in MPP+-treated cells; type: cell-based; conditions: 2 mM MPP+, 50 nM, 24 hours; FIGS. 19 and 20
Method: In this embodiment, MAO-B-deficient human neuroblastoma SH-SY5Y cells (Korean Cell Line Bank) were used. The cells were cultured in a DMEM medium at 37° C. with 5% of CO2 for 24 hours. The cultured cells were divided into three groups, 2 mM of MPP^+ was added to each group, one of the three groups was treated with 50 nM of CBI, one of the other two groups was treated with 50 nM of rasagiline, and the three groups were further incubated with 5% of CO2 at 37° C. for 24 hours. The group with only MPP^+ added thereto was incubated under the same conditions as described above. Subsequently, the cells were stained with 2,7-dichlorofluorescein diacetate (DCF-DA), which is a fluorescence dye capable of detecting reactive oxygen species, and then observed using a confocal microscope (Nikon Co., Japan).

MPTP-induced mouse [2] = assay: Tail suspension test in MPTP-induced mouse; type: in vivo, C57BL/6 mice; conditions: FIG. 3
Method: The tail suspension test was performed to measure the extent of causation of behavioral loss according to the administration of MPTP and medicines. The TST was performed in such a manner that 7 days after the compounds described above are respectively administered to the three groups, a circular stainless steel stick with a width of 1 cm was fixed to a cage with a width of 16 cm and a height of 40 cm located at a height of 35 cm and whose left and right sides were covered by black wood. The movement time of the mice was measured for 6 minutes in a second unit, and thus the efficacies of the compounds were evaluated.

Bcl-xL = assay: Amount of Bcl-xL protein by western blotting in apoptosis-induced cells; type: cell-based, human; conditions: serum-free medium, 24 hours; FIG. 11
Description: Meanwhile, a variety of signal transduction proteins are involved in a process for mediating or inhibiting apoptosis, and representative examples thereof include Bcl-2 gene family proteins (Journal of Bioenergetics and Biomembranes, 37:179-190 (2005); J. Cell Mol. Med., 7:249-257 (2003); Genes and Development, 13:1899-1911 (1999)). Thus, 0.1, 1 and 10 of CBI or 0.1, 1 and 10 of rasagiline were respectively added to the apoptosis-induced cells as described above, the resulting cells were further incubated in 5% of CO2 at 37° C. for 24 hours, mRNA was extracted from the cultured cells or a cell extract was obtained therefrom, and thus the amount of Bcl-2 mRNA and the amounts of Bcl-2 and Bcl-xL proteins were measured. The amount of Bcl-2 mRNA was measured by real-time RT-PCR, and the amounts of Bcl-2 and Bcl-xL proteins were measured by western blotting.
For western blotting, the SH-SY5Y cells were lysed with RIPA buffer (50 mM Tris-Cl pH 7.4, 1% NP-40, 0.25% sodium deoxycholate, 0.1% SDS, 150 mM NaCl, 1 mM EDTA) and then centrifuged to obtain a cell extract. […]

dopamine transporter = assay: Dopamine transporter binding assay ([125I]PE2I) on striatum sections of MPTP-induced monkey; type: in vivo, Macaque monkeys; conditions: FIG. 2
catalase = assay: Activity of catalase in striatum and substantia nigra of mouse; type: in vivo, C57BL/6 mice; conditions: 1 mg/kg oral for 8 days, no neurotoxin, FIG. 22
Method: (§1) Next day after the last day of administration, striatum and substantia nigra tissues were taken out of each group of mice. Cell extracts were obtained from the cells of the tissues, and thus the activities of the catalase, SOD and GPx were measured.

caspase 3 = assay: Activity of caspase 3/7 (Apo-ONE) in MPP+-treated cells; type: cell-based, human; conditions: 2 mM MPP+, 24 hours; CBI 1, 5, 10 and 50 nM, rasagiline 50 nM; FIG. 18
Method: SH-SY5Y cells were incubated in a 96-well plate at a concentration of 5×10^5 cells/well under the same conditions as described above, the cells were treated with 2 mM of MPP^+ and CBI (1, 5, 10 and 50 nM) or rasagiline (50 nM), and the resulting cells were incubated for 24 hours. Subsequently, 100 μl of Apo-ONE caspase 3/7 reagent (Promega, G7790) was added thereto and mixed therewith, and the resultant was further incubated for 4 hours. After the incubation was terminated, fluorescence was measured at an excitation wavelength of 495 nm and an emission wavelength of 521 nm by using a fluorescence plate reader (GeminiXPS, Molecular Devices).

SOD = assay: Activity of SOD in striatum and substantia nigra of mouse; type: in vivo, C57BL/6 mice; conditions: 1 mg/kg oral for 8 days, no neurotoxin; FIG. 22
Method: as §1

NGF = assay: Amount of NGF mRNA in striatum of mouse without neurotoxin; type: in vivo, C57BL/6 mice; conditions: 1 mg/kg oral once a day for 8 days each; FIG. 15
Method: Next day after the last day of administration, striatum and substantia nigra tissues were taken out of each group of mice. mRNA was extracted from the cell of the taken tissue, and thus the amount of mRNA of NGF was measured by real-time RT-PCR.

MPTP-induced mouse [3] = assay: Concentration of dopamine in striatum of MPTP-induced mouse (HPLC); type: in vivo, C57BL/6 mice; conditions: 1 mg/kg oral once a day, FIG. 4
Method: 7 days after the compounds described above are respectively administered to the three groups, the mice in each group were sacrificed by cervical dislocation and brain tissues were immediately taken out of the mice. Striatum was collected from the brain tissue, 0.5 ml of a HPLC assay diluent (0.1 M HClO4, 0.1 mM EDTA) was added to the striatum, and a tissue homogenate was then prepared using an ultrasonic processor. The homogenate was centrifuged at 12,000 rpm for 15 minutes, and the supernatant was filtered with a nitrocellulose filter (0.2 um, Millipore). For HPLC analysis, HR-80 column (80 mm×4.6 mm, particle size: 3 μm ESA, USA) was used, the flow rate of a mobile phase (0.07 M monobasic sodium phosphate, 1 mM sodium octasulfonic acid, 0.1 uM EDTA, 5% acetonitrile, pH 3.2) was maintained at 0.7 ml/min, and the electrode potential of an electrochemical detector (Coulochem III, ESA, USA) was at E1=−100 mV, E2=350 mV.

malonate-induced mouse = assay: Striatum damage in malonate-induced mouse (TTC staining); type: in vivo, ICR mice; conditions: 5 mg/kg i.p., five times; TTC staining 3 days after malonate; FIGS. 7 and 8
Method: 5 ml/kg of equithesin was administered to each mouse via intraperitoneal injection to be anesthetized, two levelers of a stereotactic instrument were set at 0 mm from both external auditory canals, and the skull of the mouse was perforated in the stereotactic instrument. 0.2 mg/ml of ascorbic acid was used as a control, and 2.4 umole/2 of malonate was injected into a lesion group and a compound treatment group 0.5 mm forward (AP) and 1.2 mm sideward from striatum on the right side (bregma) and 3.1 mm downward from dura matter by using a Hamilton syringe (10 μl, 26G needle) at a rate of 1 uL/min. The groups administered with malonate were divided into two groups, and 0.5 ml/kg of excipient (n=12) and 5 mg/kg of CBI (n=14) were respectively administered to the two groups via intraperitoneal injection 2 hours before an operation and administered again 1 hour, 1 day, 2 days and 3 days after the operation, i.e., total five times. Malonate was injected into striatum of the mouse, the mouse was sacrificed after 3 days, and the brain was taken out of the mouse to prepare a section. Thereafter, the section was stained with 2,3,5-triphenyltetrazolium chloride (TTC).

## NC(=O)OCc1cc(-c2ccc(OCc3ccccc3)cc2)no1 [CBI, carbamic acid 3-(4-benzyloxy-phenyl)-isoxazole-5-yl methylester]
[1]
  reactive oxygen species: significantly decreased
MPTP-induced mouse [2]; 1 mg/kg oral each
  behavioral restoration in tail suspension test compared with rasagiline group: excellent capability of behavioral restoration
MPTP-induced mouse [2]; 1 mg/kg oral once a day after MPTP 30 mg/kg i.p. x 4 days
  behaviors in tail suspension test: the same extent of behaviors as those of normal mice
Bcl-xL
  amount of Bcl-xL relative to control: larger than that in the control
Dopamine transporter; 1 mg/kg oral for 4 weeks after MPTP
  dopamine transporters in medial striatum and caudal striatum: a large number of dopamine transporters
Dopamine transporter; same amount (1 mg/kg) of rasagiline
  amount of dopamine transporters compared with rasagiline group: significantly larger amount of dopamine transporters
catalase
  increase of the activity of the catalase in the striatum: about 13%
Caspase 3
  activity of caspase 3: reduced
SOD
  activity of the SOD: no significant change
NGF
  expression of NGF in the striatum compared with rasagiline group: significantly higher
MPTP-induced mouse [3]
  restoration of the concentration of dopamine in striatum compared with normal mice: about 70%
malonate-induced mouse
  damaged regions of the striatum induced by malonate: significantly reducing damaged regions of the striatum
